Measured values published in patent US7763648B2, “Oxa-steroids derivatives as selective progesterone receptor modulators” (Janssen Pharmaceutica N.V., priority 2006, dated 2010).

Columns and labels:
[1] = test system: T47D human breast cancer cells; assay: T47D Human Breast Cancer Cells Assay (alkaline phosphatase); type: cell-based; conditions: 24 h with test compound, luminescence
Protocol: T47D Human Breast Cancer Cells Assay
T47D human breast cancer cells were grown in RPMI medium without phenol red (Invitrogen) containing 10% (v/v) heat-inactivated fetal bovine serum (FBS; Hyclone), 1% (v/v) penicillin-streptomycin (Invitrogen), 1% (w/v) glutamine (Invitrogen), and […] insulin (Sigma). Incubation conditions were 37° C. in a humidified 5% (v/v) carbon dioxide environment.
The cells were plated in 96-well tissue culture plates at 10,000 cells per well in assay medium [RPMI medium without phenol red (Invitrogen) containing 5% (v/v) charcoal-treated FBS (Hyclone) and 1% (v/v) penicillin-streptomycin (Invitrogen)]. Two days later, the medium was decanted and test compound or control were added at a final concentration of 0.1% (v/v) dimethyl sulfoxide in fresh assay medium. Twenty-four hours later, an alkaline phosphatase assay was performed using a SEAP kit (BD Biosciences Clontech, Palo Alto, Calif.). Briefly, the medium was decanted and the cells were fixed for 30 minutes at room temperature with 5% (v/v) formalin (Sigma). The cells were washed once with room temperature Hank's buffered saline solution (Invitrogen). Equal volumes (0.05 mL) of 1× Dilution Buffer, Assay Buffer and 1:20 substrate/enhancer mixture were then added. After 1 hour incubation at room temperature in the dark, the lysate was transferred to a white 96-well plate (Dynex) and luminescence was read using a LuminoSkan Ascent (Thermo Electron, Woburn, Mass.).

[2] = test system: A549 Human lung carcinoma cells; assay: A549 Human Lung Cell Assay (transfected, dexamethasone challenge, Luc-assay); type: cell-based; conditions: Dexamathasone challenge, 24 h
Protocol: A549 Human Lung Cell Assay
A549 Human lung carcinoma cells were grown in F-12K Nutrient Mixture containing 10% (v/v) fetal bovine serum (FBS; Invitrogen), 2 mM glutamine and 0.15% sodium dicarbonate (Invitrogen).
A549 cells were split 1 to 3 in 175 cm tissue culture flask. The cells were incubated at 37° C. in CO2 incubator until the cells were 95% confluent (typically 24-30 hours).
The following solutions were prepared in sterile tubes: (a) Solution A: 1.5 μg/ml of DNA in 8.5 ml OPTI-MEM I Reduced Serum Medium. (GIBCO cat# 31985) and (b) Solution B: 6 μl/ml of DMRIE-C Reagent into […] OPTI-MEM I. The two solutions were combined and mixed gently, then incubated at room temperature for 40 minutes.
The A549 cells prepared above were washed with […] of OPTI-MEM I. The medium was removed and 17 ml of the lipid-DNA complex solution was overlayed onto cells. The cells ere then incubated for 16 h at 37° C. in CO2 incubator. The DNA-containing medium was removed and 30 ml of growth medium was added. (5% Charcoal treated FBS) After 5-6 h, the cells were seeded in a 96 well plate and the cells incubated overnight at 37° C. in CO2 incubator.
To each well was then added 5 μl of test compounds and the cells incubated at 37° C. for 10 min. 5 μL of Dexamathasone (CAS [50-02-2]), was then added to each well for challenger and the cells incubated at 37° C. in CO2 incubator for 24 h. 100 μl of Luc-assay buffer was then added into each cell well and the cells incubated for 30 min at room temperature. A 150 μL sample from each well was then transferred into a DYNEX Microlitel plate and read on Top-counter.

| IC50 [1] [nM] | IC50 [2] [nM] | Structure (SMILES) |
| --- | --- | --- |
| 0.905 | 34.4 | CN(C)c1ccc([C@H]2C[C@@]3(C)[C@@H](CC[C@@]3(O)C#Cc3cc(F)cc(F)c3)[C@@H]3OCC4=CC(=O)CCC4=C32)cc1 [Compound 18, 17-(3,5-Difluoro-phenylethynyl)-11-(4-dimethylamino-phenyl)-17-hydroxy-13-methyl-1,2,8,11,12,13,14,15,16,17-decahydro-6H-7-oxa-cyclopenta[a]phenanthren-3-one] |
| 1.6 | 22.1 | Cc1ccc(C#C[C@]2(O)CC[C@H]3[C@@H]4OCC5=CC(=O)CCC5=C4[C@@H](c4ccc(N(C)C)cc4)C[C@@]32C)cc1 [Compound 7, 11-(4-Dimethylamino-phenyl)-17-hydroxy-13-methyl-17-p-tolylethynyl-1,2,8,11,12,13,14,15,16,17-decahydro-6H-7-oxa-cyclopenta[a]phenanthren-3-one] |
| > 1000 | 559 | CN(C)c1ccc(C2C[C@@]3(C)[C@@H](CC[C@@]3(O)C#CC(C)(C)O)[C@@H]3OCC4=CC(=O)CCC4=C23)cc1 (stereo in doubt) [Compound 6, 11-(4-Dimethylamino-phenyl)-17-hydroxy-17-(3-hydroxy-3-methyl-but-1-ynyl)-13-methyl-1,2,8,11,12,13,14,15,16,17-decahydro-6H-7-oxa-cyclopenta[a]phenanthren-3-one] |
| 21 | 342 | CN(C)c1ccc(C2C[C@@]3(C)[C@@H](CC[C@@]3(O)C#Cc3cccnc3)[C@@H]3OCC4=CC(=O)CCC4=C23)cc1 (stereo in doubt) [Compound 27, 11-(4-Dimethylamino-phenyl)-17-hydroxy-13-methyl-17-pyridin-3-ylethynyl-1,2,8,11,12,13,14,15,16,17-decahydro-6H-7-oxa-cyclopenta[a]phenanthren-3-one] |
| 1.55 | 56 | CN(C)c1ccc([C@H]2C[C@@]3(C)[C@@H](CC[C@@]3(O)C#Cc3ccsc3)[C@@H]3OCC4=CC(=O)CCC4=C32)cc1 [Compound 29, 11-(4-Dimethylamino-phenyl)-17-hydroxy-13-methyl-17-thiophen-3-ylethynyl-1,2,8,11,12,13,14,15,16,17-decahydro-6H-7-oxa-cyclopenta[a]phenanthren-3-one] |
| 34 | 175 | CN(C)c1ccc(C2C[C@@]3(C)[C@@H](CC[C@@]3(O)C#Cc3ccccn3)[C@@H]3OCC4=CC(=O)CCC4=C23)cc1 (stereo in doubt) [Compound 26, 11-(4-Dimethylamino-phenyl)-17-hydroxy-13-methyl-17-pyridin-2-ylethynyl-1,2,8,11,12,13,14,15,16,17-decahydro-6H-7-oxa-cyclopenta[a]phenanthren-3-one] |
| 18.6 | 55.5 | CN(C)c1ccc(C2C[C@@]3(C)[C@@H](CC[C@@]3(O)C#CC(F)(F)F)[C@@H]3OCC4=CC(=O)CCC4=C23)cc1 (stereo in doubt) [Compound 13, 11-(4-Dimethylamino-phenyl)-17-hydroxy-13-methyl-17-trifluoroprop-1-ynyl-1,2,8,11,12,13,14,15,16,17-decahydro-6H-7-oxa-cyclopenta[a]phenanthren-3-one] |
| 600 | 315 | COCC#C[C@]1(O)CC[C@H]2[C@@H]3OCC4=CC(=O)CCC4=C3C(c3ccc(N(C)C)cc3)C[C@@]21C (stereo in doubt) [Compound 30, 11-(4-Dimethylamino-phenyl)-17-hydroxy-17-(3-methoxy-prop-1-ynyl)-13-methyl-1,2,8,11,12,13,14,15,16,17-decahydro-6H-7-oxa-cyclopenta[a]phenanthren-3-one] |
| 3.15 | 51 | CN(C)c1ccc([C@H]2C[C@@]3(C)[C@@H](CC[C@@]3(O)C#Cc3ccccc3C(F)(F)F)[C@@H]3OCC4=CC(=O)CCC4=C32)cc1 [Compound 22, 11-(4-Dimethylamino-phenyl)-17-hydroxy-13-methyl-17-(2-trifluoromethyl-phenylethynyl)-1,2,8,11,12,13,14,15,16,17-decahydro-6H-7-oxa-cyclopenta[a]phenanthren-3-one] |
| 19 | 204 | C#C[C@]1(O)CC[C@H]2[C@@H]3OCC4=CC(=O)CCC4=C3C(c3ccc(N(C)C)cc3)C[C@@]21C (stereo in doubt) [Compound 4, 11-(4-Dimethylamino-phenyl)-17-ethynyl-17-hydroxy-13-methyl-1,2,8,11,12,13,14,15,16,17-decahydro-6H-7-oxa-cyclopenta[a]phenanthren-3-one] |
| 2.65 | 45.4 | CN(C)c1ccc([C@H]2C[C@@]3(C)[C@@H](CC[C@@]3(O)C#Cc3cccc(C(F)(F)F)c3)[C@@H]3OCC4=CC(=O)CCC4=C32)cc1 [Compound 23, 11-(4-Dimethylamino-phenyl)-17-hydroxy-13-methyl-17-(3-trifluoromethyl-phenylethynyl)-1,2,8,11,12,13,14,15,16,17-decahydro-6H-7-oxa-cyclopenta[a]phenanthren-3-one] |
| 9.55 | 33.4 | CN(C)c1ccc([C@H]2C[C@@]3(C)[C@@H](CC[C@@]3(O)C#CC3CC3)[C@@H]3OCC4=CC(=O)CCC4=C32)cc1 [Compound 2, 17-Cyclopropylethynyl-11-(4-dimethylamino-phenyl)-17-hydroxy-13-methyl-1,2,8,11,12,13,14,15,16,17-decahydro-6H-7-oxa-cyclopenta[a]phenanthren-3-one] |
| 2.85 | 36.3 | Cc1cccc(C#C[C@]2(O)CC[C@H]3[C@@H]4OCC5=CC(=O)CCC5=C4[C@@H](c4ccc(N(C)C)cc4)C[C@@]32C)c1 [Compound 25, 11-(4-Dimethylamino-phenyl)-17-hydroxy-13-methyl-7-m-tolylethynyl-1,2,8,11,12,13,14,15,16,17-decahydro-6H-7-oxa-cyclopenta[a]phenanthren-3-one] |
| 1.08 | 64.8 | CN(C)c1ccc([C@H]2C[C@@]3(C)[C@@H](CC[C@@]3(O)C#Cc3ccccc3Cl)[C@@H]3OCC4=CC(=O)CCC4=C32)cc1 [Compound 19, 17-(2-Chloro-phenylethynyl)-11-(4-dimethylamino-phenyl)-17-hydroxy-13-methyl-1,2,8,11,12,13,14,15,16,17-decahydro-6H-7-oxa-cyclopenta[a]phenanthren-3-one] |
| 185 | 167 | CN(C)c1ccc(C2C[C@@]3(C)[C@@H](CC[C@@]3(O)C#CC(C)(C)C)[C@@H]3OCC4=CC(=O)CCC4=C23)cc1 (stereo in doubt) [Compound 5, 11-(4-Dimethylamino-phenyl)-17-(3,3-dimethyl-but-1-ynyl)-17-hydroxy-13-methyl-1,2,8,11,12,13,14,15,16,17-decahydro-6H-7-oxa-cyclopenta[a]phenanthren-3-one] |
| 3.2 | 80.3 | COc1ccc(C#C[C@]2(O)CC[C@H]3[C@@H]4OCC5=CC(=O)CCC5=C4[C@@H](c4ccc(N(C)C)cc4)C[C@@]32C)cc1 [Compound 15, 11-(4-Dimethylamino-phenyl)-17-hydroxy-17-(4-methoxy-phenylethynyl)-13-methyl-1,2,8,11,12,13,14,15,16,17-decahydro-6H-7-oxa-cyclopenta[a]phenanthren-3-one] |
| 5.15 | 86.5 | CC#C[C@]1(O)CC[C@H]2[C@@H]3OCC4=CC(=O)CCC4=C3[C@@H](c3ccc(N(C)C)cc3)C[C@@]21C [Compound 1, 11-(4-Dimethylamino-phenyl)-17-hydroxy-13-methyl-17-prop-1-ynyl-1,2,8,11,12,13,14,15,16,17-decahydro-6H-7-oxa-cyclopenta[a]phenanthren-3-one] |
| 1.02 | 56.6 | CN(C)c1ccc([C@H]2C[C@@]3(C)[C@@H](CC[C@@]3(O)C#Cc3cccc(F)c3)[C@@H]3OCC4=CC(=O)CCC4=C32)cc1 [Compound 17, 11-(4-Dimethylamino-phenyl)-17-(3-fluoro-phenylethynyl)-17-hydroxy-13-methyl-1,2,8,11,12,13,14,15,16,17-decahydro-6H-7-oxa-cyclopenta[a]phenanthren-3-one] |
